Measured values: ChEMBL document CHEMBL1201862, “PubChem BioAssay data set” (2004)
The source made the active and inactive calls.

Key:
[1] = Intein inhibitors as potential Tuberculosis drugs, a cytotoxicity screen. [Related pubchem assays (depositor defined):AID2221, AID2223, AID434968, AID435010, AID449749, AID449750, AID489010]; format: functional
[2] = target: Paired box protein Pax-8 (Homo sapiens, UniProt Q06710); experiment: inhibitors of PAX8-driven TPO luciferase reporter, dose response, RMG-I cells, cherry-pick (AID 687027); format: functional, cell-based;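 note: luciferase reporter driven by Pax8 target thyroperoxidase promoter measured by SteadyGlo luminescence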
[3] = cytotoxicity toward DRD oncogenic fibroblasts, dose response, cell-based, non-viral oncogenic, luminescence (AID 1934); format: functional; settings: Homo sapiens
[4] = target: T1, Replicative DNA helicase DnaB (Mycobacterium tuberculosis, UniProt P9WMR3); experiment: DnaB intein splicing inhibitors, dose response, biochemical, cell-free fluorescence (AID 449749); format: functional
T1 sequence (P9WMR3 whole entry): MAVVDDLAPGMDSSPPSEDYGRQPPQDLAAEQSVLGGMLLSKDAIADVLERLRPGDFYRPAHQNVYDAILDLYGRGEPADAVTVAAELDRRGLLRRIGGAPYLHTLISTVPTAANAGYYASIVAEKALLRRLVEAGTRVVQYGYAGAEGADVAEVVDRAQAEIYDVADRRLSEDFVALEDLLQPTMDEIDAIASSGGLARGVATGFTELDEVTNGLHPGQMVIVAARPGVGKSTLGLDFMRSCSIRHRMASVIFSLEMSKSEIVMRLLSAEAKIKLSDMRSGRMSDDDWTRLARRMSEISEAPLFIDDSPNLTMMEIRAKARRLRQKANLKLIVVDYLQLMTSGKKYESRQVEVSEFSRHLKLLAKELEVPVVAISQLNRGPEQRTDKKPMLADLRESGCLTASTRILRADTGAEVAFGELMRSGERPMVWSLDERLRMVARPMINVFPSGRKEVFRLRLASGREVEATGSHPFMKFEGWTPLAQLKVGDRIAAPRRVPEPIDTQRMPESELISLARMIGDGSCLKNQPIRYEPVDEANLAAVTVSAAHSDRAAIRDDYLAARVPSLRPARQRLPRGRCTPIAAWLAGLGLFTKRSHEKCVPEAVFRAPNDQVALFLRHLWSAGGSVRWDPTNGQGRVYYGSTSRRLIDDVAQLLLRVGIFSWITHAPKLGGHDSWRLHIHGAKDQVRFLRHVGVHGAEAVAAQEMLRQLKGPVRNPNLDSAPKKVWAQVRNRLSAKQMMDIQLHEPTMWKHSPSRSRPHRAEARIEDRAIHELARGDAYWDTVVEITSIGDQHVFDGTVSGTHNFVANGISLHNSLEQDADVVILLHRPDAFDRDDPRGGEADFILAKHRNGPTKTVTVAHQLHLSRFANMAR

[5] = system: BJ; experiment: cytotoxicity toward BJ-TERT fibroblasts, dose response, cell-based, RAS-independent, luminescence (AID 1933); format: functional; settings: Homo sapiens
[6] = system: BJ; experiment: cytotoxicity toward Ras-transformed BJeLR fibroblasts, dose response, cell-based, alamar blue fluorescence, cherrypicked samples (AID 2631); format: functional; settings: Homo sapiens;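 note: confirmatory dose-response assay in RAS-dependent BJ fibroblasts engineered with TERT, LT and ST, with cytotoxicity read by fluorescence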
[7] = system: BJ; experiment: cytotoxicity toward BJ-TERT-LT-ST fibroblasts, dose response, cell-based, RAS-independent, luminescence (AID 1935); format: functional; settings: Homo sapiens;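 note: BJ fibroblasts immortalized with TERT plus LT and ST oncogenes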
[8] = target: T2, Protein RecA (Mycobacterium tuberculosis, UniProt P9WHJ3); experiment: Fluorescence Cell-Free Homogeneous Dose Retest to Identify Inhibitors of RecA-Intein Splicing Activity. [Related pubchem assays (depositor defined):AID2097, AID2223, AID489010, AID492950]; format: functional
T2 sequence (P9WHJ3 whole entry): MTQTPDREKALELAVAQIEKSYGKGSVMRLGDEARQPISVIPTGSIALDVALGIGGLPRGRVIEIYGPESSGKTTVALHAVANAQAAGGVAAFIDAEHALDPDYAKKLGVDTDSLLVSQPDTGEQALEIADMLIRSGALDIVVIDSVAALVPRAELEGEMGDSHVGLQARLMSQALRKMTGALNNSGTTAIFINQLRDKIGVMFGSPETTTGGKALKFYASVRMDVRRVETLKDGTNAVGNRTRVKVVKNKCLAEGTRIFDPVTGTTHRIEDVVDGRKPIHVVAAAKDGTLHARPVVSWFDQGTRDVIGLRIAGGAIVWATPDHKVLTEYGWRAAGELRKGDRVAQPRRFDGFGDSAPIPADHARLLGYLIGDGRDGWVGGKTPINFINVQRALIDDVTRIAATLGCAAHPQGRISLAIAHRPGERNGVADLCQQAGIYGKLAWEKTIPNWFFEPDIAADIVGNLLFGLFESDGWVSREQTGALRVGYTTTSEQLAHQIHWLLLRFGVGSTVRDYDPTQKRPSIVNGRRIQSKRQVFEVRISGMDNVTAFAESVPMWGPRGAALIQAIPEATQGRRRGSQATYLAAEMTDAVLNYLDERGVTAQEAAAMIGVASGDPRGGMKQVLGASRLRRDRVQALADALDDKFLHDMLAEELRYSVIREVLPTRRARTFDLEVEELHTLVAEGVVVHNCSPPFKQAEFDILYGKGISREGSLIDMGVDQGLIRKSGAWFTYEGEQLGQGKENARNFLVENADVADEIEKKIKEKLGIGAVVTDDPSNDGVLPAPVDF

[9] = non-specific cell cytotoxicity, dose response, cytotoxicity control for PAX8 inhibitor project, plate reader, dry powder samples (AID 743021); format: functional, cell-based
[10] = growth suppression of PTEN-null colon cells, dose response, cell-based, HCT116 PTEN knockout (AID 1047); format: functional;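 note: HCT116 colon tumor cells with PTEN knocked out; cells exposed to compound for 60 hours before readout; potency for loss of cell viability measured by luminescence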
[11] = growth suppression of beta-catenin-knockout colon cells, dose response, cell-based, HCT116, human colon tumor (AID 1045); format: functional;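 note: HCT116 colon tumor cells with beta catenin knocked out; cells exposed to compound for 60 hours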
[12] = system: BJ; experiment: cells; format: functional, cell-based; settings: Homo sapiens
[13] = target: Delta-type opioid receptor (Homo sapiens, UniProt P41143); experiment: SAR Analysis of Antagonists of the DOR Receptor using an Image-Based Assay - Set 3. [Related pubchem assays (depositor defined):AID1777, AID1785]; format: functional;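 note: U2OS cells expressing DOR1 and beta-arrestin GFP stimulated with 100 nM SNC80; imaging of GFP-tagged beta-arrestin moving into spots after receptor activation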
[14] = target: Mu-type opioid receptor (Homo sapiens, UniProt P35372); experiment: SAR Analysis of Antagonists of the MOR Receptor using an Image-Based Assay - Set 3. [Related pubchem assays (depositor defined):AID1777, AID1785, AID1786, AID1966, AID2133, AID2136, AID2284, AID2285, AID2420]; format: functional
[15] = target: T3, Kappa-type opioid receptor (Homo sapiens, UniProt P41145); experiment: SAR analysis of small molecule antagonists of the kappa opioid receptor via a luminescent beta-arrestin assay - Set 3. [Related pubchem assays (depositor defined):AID1777, AID1778, AID1785, AID1786, AID1966, AID2133, AID2136, AID2285, AID2495]; format: functional
[16] = target: T3, Kappa-type opioid receptor; experiment: SAR analysis of Antagonists of the Kappa Opioid Receptor (KOR) using an Image-Based Assay - Set 4. [Related pubchem assays (depositor defined):AID1777, AID1785]; format: functional
[17] = target: G-protein coupled receptor 55 (Homo sapiens, UniProt Q9Y2T6); experiment: GPR55 antagonists blocking LPI-driven arrestin recruitment, primary screen, imaging, U2OS, beta-arrestin-GFP, LPI agonist (AID 2013); format: functional;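 note: antagonist potency measured as reduced agonist-driven arrestin aggregation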
[18] = target: T4, Voltage-gated N-type calcium channel alpha-1B subunit/Amyloid beta A4 precursor protein-binding family A member 1 (Homo sapiens, UniProt Q00975+Q02410); format: protein assay
[19] = target: T4, Voltage-gated N-type calcium channel alpha-1B subunit/Amyloid beta A4 precursor protein-binding family A member 1; format: protein assay; remark: listed apart in the source
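Throughout, for CC50: cells exposed to compound for 72 hours before luminescence readout.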

T3 sequence (P41145 whole entry): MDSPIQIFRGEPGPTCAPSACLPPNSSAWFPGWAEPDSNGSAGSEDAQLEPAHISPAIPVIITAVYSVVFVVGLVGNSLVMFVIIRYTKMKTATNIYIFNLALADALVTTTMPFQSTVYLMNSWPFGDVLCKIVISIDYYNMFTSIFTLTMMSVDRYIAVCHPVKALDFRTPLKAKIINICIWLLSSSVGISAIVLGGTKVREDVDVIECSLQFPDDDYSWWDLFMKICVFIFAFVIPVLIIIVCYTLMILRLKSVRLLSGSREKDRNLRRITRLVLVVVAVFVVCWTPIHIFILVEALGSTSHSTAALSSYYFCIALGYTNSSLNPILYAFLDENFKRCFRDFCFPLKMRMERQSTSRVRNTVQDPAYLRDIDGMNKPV
T4 sequence (Q00975 whole entry): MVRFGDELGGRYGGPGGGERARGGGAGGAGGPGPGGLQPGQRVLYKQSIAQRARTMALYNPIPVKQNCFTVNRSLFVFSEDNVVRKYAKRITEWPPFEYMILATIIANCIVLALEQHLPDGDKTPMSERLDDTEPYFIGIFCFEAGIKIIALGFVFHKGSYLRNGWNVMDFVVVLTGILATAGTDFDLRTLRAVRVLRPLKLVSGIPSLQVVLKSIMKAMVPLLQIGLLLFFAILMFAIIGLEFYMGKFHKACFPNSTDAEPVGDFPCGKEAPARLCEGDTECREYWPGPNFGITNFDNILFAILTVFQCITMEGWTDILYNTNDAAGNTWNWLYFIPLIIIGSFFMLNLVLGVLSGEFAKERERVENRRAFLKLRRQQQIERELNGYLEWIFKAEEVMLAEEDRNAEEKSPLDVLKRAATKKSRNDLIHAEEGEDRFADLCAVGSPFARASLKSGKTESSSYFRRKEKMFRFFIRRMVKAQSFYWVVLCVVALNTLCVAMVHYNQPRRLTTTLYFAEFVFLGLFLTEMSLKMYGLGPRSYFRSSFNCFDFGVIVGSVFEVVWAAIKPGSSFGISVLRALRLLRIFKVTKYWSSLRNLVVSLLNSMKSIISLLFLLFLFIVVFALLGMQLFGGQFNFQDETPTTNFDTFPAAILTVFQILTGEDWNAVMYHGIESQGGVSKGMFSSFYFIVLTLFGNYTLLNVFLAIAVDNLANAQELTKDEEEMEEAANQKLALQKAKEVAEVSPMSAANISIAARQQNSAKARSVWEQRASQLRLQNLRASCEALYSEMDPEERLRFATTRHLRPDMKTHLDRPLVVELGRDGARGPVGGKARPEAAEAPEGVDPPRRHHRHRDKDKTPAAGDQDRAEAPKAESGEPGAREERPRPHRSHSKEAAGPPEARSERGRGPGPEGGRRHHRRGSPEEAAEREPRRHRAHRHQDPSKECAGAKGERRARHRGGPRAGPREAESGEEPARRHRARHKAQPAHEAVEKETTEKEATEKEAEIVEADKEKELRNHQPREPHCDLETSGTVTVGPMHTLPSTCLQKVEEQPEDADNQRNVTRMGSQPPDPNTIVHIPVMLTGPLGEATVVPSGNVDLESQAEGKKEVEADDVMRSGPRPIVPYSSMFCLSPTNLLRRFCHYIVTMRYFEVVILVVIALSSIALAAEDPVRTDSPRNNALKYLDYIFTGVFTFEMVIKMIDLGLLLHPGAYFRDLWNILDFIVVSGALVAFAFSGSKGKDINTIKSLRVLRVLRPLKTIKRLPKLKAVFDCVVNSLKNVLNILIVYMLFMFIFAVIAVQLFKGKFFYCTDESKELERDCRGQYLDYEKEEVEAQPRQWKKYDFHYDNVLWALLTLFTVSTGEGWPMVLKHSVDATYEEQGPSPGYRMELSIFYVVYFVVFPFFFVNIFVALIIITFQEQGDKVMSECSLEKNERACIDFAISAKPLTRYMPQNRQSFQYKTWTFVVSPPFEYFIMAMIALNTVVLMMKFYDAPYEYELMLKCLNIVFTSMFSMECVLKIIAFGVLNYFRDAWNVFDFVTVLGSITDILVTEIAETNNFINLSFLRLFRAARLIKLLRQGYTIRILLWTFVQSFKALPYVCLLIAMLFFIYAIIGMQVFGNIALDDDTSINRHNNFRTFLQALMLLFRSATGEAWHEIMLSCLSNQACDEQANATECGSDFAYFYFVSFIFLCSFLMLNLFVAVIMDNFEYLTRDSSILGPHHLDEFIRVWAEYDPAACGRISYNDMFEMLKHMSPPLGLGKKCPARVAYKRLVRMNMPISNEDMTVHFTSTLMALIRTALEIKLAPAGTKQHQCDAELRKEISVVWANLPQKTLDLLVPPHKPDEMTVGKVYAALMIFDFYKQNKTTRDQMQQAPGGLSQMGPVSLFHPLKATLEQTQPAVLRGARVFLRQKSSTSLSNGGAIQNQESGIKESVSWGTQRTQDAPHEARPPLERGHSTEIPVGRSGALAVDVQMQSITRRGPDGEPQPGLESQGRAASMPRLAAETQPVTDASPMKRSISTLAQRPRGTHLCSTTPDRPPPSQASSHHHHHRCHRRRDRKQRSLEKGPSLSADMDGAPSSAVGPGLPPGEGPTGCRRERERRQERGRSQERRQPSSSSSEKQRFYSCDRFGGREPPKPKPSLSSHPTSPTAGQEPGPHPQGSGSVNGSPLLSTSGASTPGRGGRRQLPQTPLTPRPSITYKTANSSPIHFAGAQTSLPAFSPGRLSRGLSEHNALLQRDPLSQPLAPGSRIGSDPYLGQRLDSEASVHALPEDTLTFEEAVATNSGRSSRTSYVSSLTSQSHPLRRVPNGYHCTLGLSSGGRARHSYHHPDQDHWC
T4 sequence (Q02410 whole entry): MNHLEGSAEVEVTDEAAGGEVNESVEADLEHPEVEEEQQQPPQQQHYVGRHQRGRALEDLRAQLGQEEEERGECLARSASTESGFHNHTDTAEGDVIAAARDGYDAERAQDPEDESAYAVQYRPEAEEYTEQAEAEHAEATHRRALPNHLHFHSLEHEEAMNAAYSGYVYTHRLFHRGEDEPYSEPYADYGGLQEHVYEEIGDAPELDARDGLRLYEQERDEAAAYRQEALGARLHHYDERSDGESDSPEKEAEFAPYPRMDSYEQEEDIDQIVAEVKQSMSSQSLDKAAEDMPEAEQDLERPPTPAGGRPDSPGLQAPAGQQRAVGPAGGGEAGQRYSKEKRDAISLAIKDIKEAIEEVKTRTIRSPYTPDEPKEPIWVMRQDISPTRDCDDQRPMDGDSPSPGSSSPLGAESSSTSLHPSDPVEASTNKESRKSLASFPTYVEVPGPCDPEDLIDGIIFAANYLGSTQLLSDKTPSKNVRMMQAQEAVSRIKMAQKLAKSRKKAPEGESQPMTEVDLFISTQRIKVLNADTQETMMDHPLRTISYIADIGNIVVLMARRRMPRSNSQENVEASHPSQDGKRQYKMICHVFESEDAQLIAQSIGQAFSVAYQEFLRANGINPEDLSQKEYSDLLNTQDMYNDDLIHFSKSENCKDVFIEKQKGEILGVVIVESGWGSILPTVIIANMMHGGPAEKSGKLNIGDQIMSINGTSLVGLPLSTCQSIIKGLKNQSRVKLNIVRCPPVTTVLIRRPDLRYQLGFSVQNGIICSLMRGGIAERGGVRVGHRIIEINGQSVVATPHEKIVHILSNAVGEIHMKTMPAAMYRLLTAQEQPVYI
Paired box protein Pax-8, sequence (Q06710 whole entry): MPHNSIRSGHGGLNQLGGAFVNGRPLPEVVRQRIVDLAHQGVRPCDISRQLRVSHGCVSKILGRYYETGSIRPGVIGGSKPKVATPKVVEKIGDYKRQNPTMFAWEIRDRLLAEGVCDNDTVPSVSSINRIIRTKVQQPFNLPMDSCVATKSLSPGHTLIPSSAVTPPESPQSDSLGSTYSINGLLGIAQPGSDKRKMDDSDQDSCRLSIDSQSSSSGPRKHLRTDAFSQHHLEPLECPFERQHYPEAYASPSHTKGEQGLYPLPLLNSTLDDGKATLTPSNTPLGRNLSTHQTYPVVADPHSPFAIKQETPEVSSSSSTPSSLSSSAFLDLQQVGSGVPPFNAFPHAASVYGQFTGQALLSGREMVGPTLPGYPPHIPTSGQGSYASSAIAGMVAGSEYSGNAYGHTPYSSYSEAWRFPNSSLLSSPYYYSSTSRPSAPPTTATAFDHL
Mu-type opioid receptor, sequence (P35372 whole entry): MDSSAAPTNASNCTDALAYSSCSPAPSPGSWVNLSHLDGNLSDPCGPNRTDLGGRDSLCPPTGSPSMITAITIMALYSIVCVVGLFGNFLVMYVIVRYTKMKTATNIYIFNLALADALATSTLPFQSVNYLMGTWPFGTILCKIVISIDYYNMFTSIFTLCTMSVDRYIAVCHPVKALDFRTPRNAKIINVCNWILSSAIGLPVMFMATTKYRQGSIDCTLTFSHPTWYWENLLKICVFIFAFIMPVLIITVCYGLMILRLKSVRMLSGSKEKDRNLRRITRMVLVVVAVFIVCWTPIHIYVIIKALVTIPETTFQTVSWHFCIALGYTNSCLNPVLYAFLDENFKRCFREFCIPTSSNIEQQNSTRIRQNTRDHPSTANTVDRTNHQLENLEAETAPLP
G-protein coupled receptor 55, sequence (Q9Y2T6 whole entry): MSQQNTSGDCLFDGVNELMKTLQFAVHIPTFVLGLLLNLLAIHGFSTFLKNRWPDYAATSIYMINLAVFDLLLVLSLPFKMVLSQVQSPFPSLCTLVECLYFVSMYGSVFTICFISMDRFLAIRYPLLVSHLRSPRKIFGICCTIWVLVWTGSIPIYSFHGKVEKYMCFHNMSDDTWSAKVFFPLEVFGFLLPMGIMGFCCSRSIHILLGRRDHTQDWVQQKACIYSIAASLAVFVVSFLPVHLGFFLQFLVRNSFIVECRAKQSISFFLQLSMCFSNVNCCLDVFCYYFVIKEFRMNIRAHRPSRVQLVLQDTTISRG

Compound: COc1ccc(N(C(=O)CCl)C(C(=O)NCCc2ccccc2)c2cccs2)cc1 (centres undefined)
- CC50 [1]: 430 nM (active)
- AC50 [2]: 2440 nM (active)
- EC50 [3]: 2620 nM (active)
- AC50 [4]: 2640 nM (active)
- EC50 [5]: 1220 nM (active)
- EC50 [6]: 2690 nM (active)
- EC50 [7]: 4610 nM (active)
- EC50 [8]: 327 nM (active)
- AC50 [9]: 4640 nM (active)
- EC50 [10]: 1100 nM (active)
- EC50 [11]: 986 nM (active)
- EC50 [12]: 2970 nM (inconclusive)

Compound: COc1ccc(N2CCN(CCCNC(=O)Cn3c(=O)c4cccn4c4cc(Br)cnc43)CC2)cc1
- IC50 [13]: > 32000 nM (inactive)
- IC50 [14]: 10300 nM (inactive)
- IC50 [15]: 3050 nM (active)
- IC50 [16]: 693 nM (active)

Compound: Nc1ncc(-c2nnnn2-c2ccc(Cl)cc2)c(-c2ccc(Cl)cc2)n1
- IC50 [17]: 4610 nM (active)

Compound: CC(=O)c1cccc(NC(=O)c2cc(-c3ccc(C)cc3)on2)c1
- IC50 [18]: > 50000 nM (inactive)
- IC50 [19]: 15500 nM (active)
